IC50 data for 40 compounds are collected here from patent US7932270B2 (Cytokinetics, Inc., priority 2006, dated 2011).

For orientation: IC50 means the concentration needed to halve the response being measured.

The target of the experiment is T1, chicken gizzard smooth muscle myosin subfragment-1 chemically crosslinked to cardiac or skeletal actin (Gallus gallus, UniProt P10587).
T1 construct: chicken gizzard smooth muscle myosin subfragment-1; from tissue; host or cells: chicken gizzard
T1 sequence (P02607 2-151): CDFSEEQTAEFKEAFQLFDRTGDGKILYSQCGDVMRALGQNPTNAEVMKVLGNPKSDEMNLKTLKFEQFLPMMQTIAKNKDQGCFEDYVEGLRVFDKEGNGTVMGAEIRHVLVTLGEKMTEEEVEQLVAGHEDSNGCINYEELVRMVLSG
T1 sequence (P10587 84-789): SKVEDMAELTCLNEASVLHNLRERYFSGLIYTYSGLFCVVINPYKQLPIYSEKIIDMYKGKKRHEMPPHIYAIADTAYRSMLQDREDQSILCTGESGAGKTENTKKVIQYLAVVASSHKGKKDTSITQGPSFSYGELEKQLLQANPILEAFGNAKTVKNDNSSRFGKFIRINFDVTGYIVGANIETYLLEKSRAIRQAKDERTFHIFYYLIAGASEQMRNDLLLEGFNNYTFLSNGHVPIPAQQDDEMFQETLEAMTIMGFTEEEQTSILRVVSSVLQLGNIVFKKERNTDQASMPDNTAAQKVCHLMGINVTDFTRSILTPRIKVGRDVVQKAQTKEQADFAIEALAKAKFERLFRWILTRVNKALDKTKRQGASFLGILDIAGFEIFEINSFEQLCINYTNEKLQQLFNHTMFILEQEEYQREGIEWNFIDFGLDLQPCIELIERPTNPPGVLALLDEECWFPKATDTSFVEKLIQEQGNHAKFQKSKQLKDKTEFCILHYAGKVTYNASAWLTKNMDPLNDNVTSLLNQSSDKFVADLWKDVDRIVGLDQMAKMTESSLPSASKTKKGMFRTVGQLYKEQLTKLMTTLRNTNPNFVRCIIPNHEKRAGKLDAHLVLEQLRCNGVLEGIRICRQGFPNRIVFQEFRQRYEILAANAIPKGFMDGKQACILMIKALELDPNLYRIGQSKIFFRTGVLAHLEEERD
The experiment in a line: Smooth muscle myosin ATPase dose response assay (pyruvate kinase/horseradish peroxidase/pyruvate oxidase-coupled, amplex red fluorescence). It counts as biochemical. Particulars: read-out: IC50 Arithmetic Mean. In a few lines: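 ATPase monitored by amplex red fluorescence (ex 480/em 615 nm) via pyruvate oxidase/HRP coupling, pH 7.00, ATP 0.15 mM. Enzyme: smooth muscle S1-actin crosslinked conjugate, amount set empirically by titration. Dose-response fitted with 4-parameter Hill equation for IC50.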
As to `O=C(NCc1cccnc1)c1ccc(-c2ccc(Cl)c(Cl)c2)nc1NCCc1ccccn1` [{6-(3,4-dichlorophenyl)-2-[(2-(2-pyridyl)ethyl)amino](3-pyridyl)}-N-(3-pyridylmethyl)carboxamide], the IC50 turned out to be 3370 nM.

Regarding `O=C(NCc1cccnc1)c1ccc(-c2ccc(F)c(F)c2)nc1NCCc1ccccn1` [{6-(3,4-difluorophenyl)-2-[(2-(2-pyridyl)ethyl)amino](3-pyridyl)}-N-(3-pyridylmethyl)carboxamide], the IC50 amounted to 1210 nM.

For `Cc1ccc(-c2ccc(C(=O)NCc3cccnc3)c(NCCc3ccccn3)n2)cc1C` [{6-(3,4-dimethylphenyl)-2-[(2-(2-pyridyl)ethyl)amino](3-pyridyl)}-N-(3-pyridylmethyl)carboxamide], the IC50 amounted to 3380 nM.

On to `Cc1cc(C)cc(-c2ccc(C(=O)NCc3cccnc3)c(NCCc3ccccn3)n2)c1` [{6-(3,5-dimethylphenyl)-2-[(2-(2-pyridyl)ethyl)amino](3-pyridyl)}-N-(3-pyridylmethyl)carboxamide], for which the IC50 is 10100 nM.

As for `O=C(NCc1cccnc1)c1ccc(-c2cccc(Cl)c2)nc1NCCc1ccccn1` [{6-(3-chlorophenyl)-2-[(2-(2-pyridyl)ethyl)amino](3-pyridyl)}-N-(3-pyridylmethyl)carboxamide], the IC50 came to 1970 nM.

In the case of `N#Cc1cccc(-c2ccc(C(=O)NCc3cccnc3)c(NCCc3ccccn3)n2)c1` [{6-(3-cyanophenyl)-2-[(2-(2-pyridyl)ethyl)amino](3-pyridyl)}-N-(3-pyridylmethyl)carboxamide], the IC50 was found to be 2990 nM.

`O=C(NCc1cccnc1)c1ccc(-c2cccc(F)c2)nc1NCCc1ccccn1` [{6-(3-fluorophenyl)-2-[(2-(2-pyridyl)ethyl)amino](3-pyridyl)}-N-(3-pyridylmethyl)carboxamide]: the IC50 is 915 nM.

In the case of `O=C(NCc1cccnc1)c1ccc(-c2cccc(O)c2)nc1NCCc1ccccn1` [{6-(3-hydroxyphenyl)-2-[(2-(2-pyridyl)ethyl)amino](3-pyridyl)}-N-(3-pyridylmethyl)carboxamide], the IC50 turned out to be 790 nM.

Regarding `COc1cccc(-c2ccc(C(=O)NCc3cccnc3)c(NCCc3ccccn3)n2)c1` [{6-(3-methoxyphenyl)-2-[(2-(2-pyridyl)ethyl)amino](3-pyridyl)}-N-(3-pyridylmethyl)carboxamide], the IC50 was 14900 nM.

For the compound `Cc1cccc(-c2ccc(C(=O)NCc3cccnc3)c(NCCc3ccccn3)n2)c1` [{6-(3-methylphenyl)-2-[(2-(2-pyridyl)ethyl)amino](3-pyridyl)}-N-(3-pyridylmethyl)carboxamide], the IC50 was found to be 6270 nM.

For `CC(=O)c1ccc(-c2ccc(C(=O)NCc3cccnc3)c(NCCc3ccccn3)n2)cc1` [{6-(4-acetylphenyl)-2-[(2-(2-pyridyl)ethyl)amino](3-pyridyl)}-N-(3-pyridylmethyl)carboxamide], the IC50 worked out at 2130 nM.

On to `O=C(NCc1cccnc1)c1ccc(-c2ccc(Cl)cc2)nc1NCCc1ccccn1` [{6-(4-chlorophenyl)-2-[(2-(2-pyridyl)ethyl)amino](3-pyridyl)}-N-(3-pyridylmethyl)carboxamide], for which the IC50 stood at 629 nM.

As for `N#Cc1ccc(-c2ccc(C(=O)NCc3cccnc3)c(NCCc3ccccn3)n2)cc1` [{6-(4-cyanophenyl)-2-[(2-(2-pyridyl)ethyl)amino](3-pyridyl)}-N-(3-pyridylmethyl)carboxamide], the IC50 was determined as 1930 nM.

As to `CCc1ccc(-c2ccc(C(=O)NCc3cccnc3)c(NCCc3ccccn3)n2)cc1` [{6-(4-ethylphenyl)-2-[(2-(2-pyridyl)ethyl)amino](3-pyridyl)}-N-(3-pyridylmethyl)carboxamide], the IC50 amounted to 2790 nM.

Take `O=C(NCc1cccnc1)c1ccc(-c2ccc(F)cc2)nc1NCCc1ccccn1` [{6-(4-fluorophenyl)-2-[(2-(2-pyridyl)ethyl)amino](3-pyridyl)}-N-(3-pyridylmethyl)carboxamide]: the IC50 was 1050 nM.

With `O=C(NCc1cccnc1)c1ccc(-c2ccc(O)cc2)nc1NCCc1ccccn1` [{6-(4-hydroxyphenyl)-2-[(2-(2-pyridyl)ethyl)amino](3-pyridyl)}-N-(3-pyridylmethyl)carboxamide], the concentration for half-maximal inhibition (IC50) came to 586 nM.

`COc1ccc(-c2ccc(C(=O)NCc3cccnc3)c(NCCc3ccccn3)n2)cc1` [{6-(4-methoxyphenyl)-2-[(2-(2-pyridyl)ethyl)amino](3-pyridyl)}-N-(3-pyridylmethyl)carboxamide]: the IC50 was found to be 1060 nM.

As to `Cc1csc(-c2ccc(C(=O)NCc3cccnc3)c(NCCc3ccccn3)n2)c1` [{6-(4-methyl(2-thienyl))-2-[(2-(2-pyridyl)ethyl)amino](3-pyridyl)}-N-(3-pyridylmethyl)carboxamide], the IC50 is 344 nM.

Take `Cc1cscc1-c1ccc(C(=O)NCc2cccnc2)c(NCCc2ccccn2)n1` [{6-(4-methyl(3-thienyl))-2-[(2-(2-pyridyl)ethyl)amino](3-pyridyl)}-N-(3-pyridylmethyl)carboxamide]: the IC50 came to 4060 nM.

On to `Cc1ccc(-c2ccc(C(=O)NCc3cccnc3)c(NCCc3ccccn3)n2)cc1` [{6-(4-methylphenyl)-2-[(2-(2-pyridyl)ethyl)amino](3-pyridyl)}-N-(3-pyridylmethyl)carboxamide], for which the IC50 came to 677 nM.

On to `COCc1ccccc1-c1ccc(C(=O)NCc2cccnc2)c(NCCc2ccccn2)n1` [{6-[2-(methoxymethyl)phenyl]-2-[(2-(2-pyridyl)ethyl)amino](3-pyridyl)}-N-(3-pyridylmethyl)carboxamide], for which the IC50 was found to be 84500 nM.

As to `CN(C)c1cccc(-c2ccc(C(=O)NCc3cccnc3)c(NCCc3ccccn3)n2)c1` [{6-[3-(dimethylamino)phenyl]-2-[(2-(2-pyridyl)ethyl)amino](3-pyridyl)}-N-(3-pyridylmethyl)carboxamide], the IC50 came to 12400 nM.

`CN(C)c1ccc(-c2ccc(C(=O)NCc3cccnc3)c(NCCc3ccccn3)n2)cc1` [{6-[4-(dimethylamino)phenyl]-2-[(2-(2-pyridyl)ethyl)amino](3-pyridyl)}-N-(3-pyridylmethyl)carboxamide]: the IC50 was 809 nM.

Take `O=C(NCc1cccnc1)c1ccc(-c2ccc(CO)cc2)nc1NCCc1ccccn1` [{6-[4-(hydroxymethyl)phenyl]-2-[(2-(2-pyridyl)ethyl)amino](3-pyridyl)}-N-(3-pyridylmethyl)carboxamide]: the IC50 turned out to be 2430 nM.

As for `O=C(Nc1ccccn1)c1ccc(-c2ccccc2)nc1NCCc1ccccn1` [{6-phenyl-2-[(2-(2-pyridyl)ethyl)amino](3-pyridyl)}-N-(2-pyridyl)carboxamide], the IC50 came out at 7190 nM.

On to `O=C(NCc1ccccn1)c1ccc(-c2ccccc2)nc1NCCc1ccccn1` [{6-phenyl-2-[(2-(2-pyridyl)ethyl)amino](3-pyridyl)}-N-(2-pyridylmethyl)carboxamide], for which the IC50 is 463 nM.

Consider `O=C(NCc1cccs1)c1ccc(-c2ccccc2)nc1NCCc1ccccn1` [{6-phenyl-2-[(2-(2-pyridyl)ethyl)amino](3-pyridyl)}-N-(2-thienylmethyl)carboxamide], for which the IC50 is 1720 nM.

Take `O=C(Nc1cccnc1)c1ccc(-c2ccccc2)nc1NCCc1ccccn1` [{6-phenyl-2-[(2-(2-pyridyl)ethyl)amino](3-pyridyl)}-N-(3-pyridyl)carboxamide]: the IC50 came to 5370 nM.

With `O=C(NCc1cccnc1)c1ccc(-c2ccccc2)nc1NCCc1ccccn1` [{6-phenyl-2-[(2-(2-pyridyl)ethyl)amino](3-pyridyl)}-N-(3-pyridylmethyl)carboxamide], the IC50 is 512 nM.

Take `O=C(NCc1ccsc1)c1ccc(-c2ccccc2)nc1NCCc1ccccn1` [{6-phenyl-2-[(2-(2-pyridyl)ethyl)amino](3-pyridyl)}-N-(3-thienylmethyl)carboxamide]: the IC50 was 683 nM.

Consider `O=C(NCC1CCNCC1)c1ccc(-c2ccccc2)nc1NCCc1ccccn1` [{6-phenyl-2-[(2-(2-pyridyl)ethyl)amino](3-pyridyl)}-N-(4-piperidylmethyl)carboxamide], for which the IC50 is 43700 nM.

`O=C(Nc1ccncc1)c1ccc(-c2ccccc2)nc1NCCc1ccccn1` [{6-phenyl-2-[(2-(2-pyridyl)ethyl)amino](3-pyridyl)}-N-(4-pyridyl)carboxamide]: the IC50 was found to be 5210 nM.

Take `O=C(NCc1ccncc1)c1ccc(-c2ccccc2)nc1NCCc1ccccn1` [{6-phenyl-2-[(2-(2-pyridyl)ethyl)amino](3-pyridyl)}-N-(4-pyridylmethyl)carboxamide]: the IC50 is 1290 nM.

As for `O=C(NCc1cc[nH]n1)c1ccc(-c2ccccc2)nc1NCCc1ccccn1` [{6-phenyl-2-[(2-(2-pyridyl)ethyl)amino](3-pyridyl)}-N-(pyrazol-3-ylmethyl)carboxamide], the IC50 was 711 nM.

For the compound `C=CCNC(=O)c1ccc(-c2ccccc2)nc1NCCc1ccccn1` [{6-phenyl-2-[(2-(2-pyridyl)ethyl)amino](3-pyridyl)}-N-prop-2-enylcarboxamide], the IC50 was 3120 nM.

Take `O=C(NCc1cccnc1)c1ccc(-c2ccccc2)nc1NCCc1cccs1` [{6-phenyl-2-[(2-(2-thienyl)ethyl)amino](3-pyridyl)}-N-(3-pyridylmethyl)carboxamide]: the IC50 was found to be 149 nM.

As for `O=C(NCc1cccnc1)c1ccc(-c2ccccc2)nc1NCCc1cccnc1` [{6-phenyl-2-[(2-(3-pyridyl)ethyl)amino](3-pyridyl)}-N-(3-pyridylmethyl)carboxamide], the IC50 was 2190 nM.

`O=C(NCCc1ccccn1)c1ccc(-c2ccccc2)nc1NCCc1ccccc1` [{6-phenyl-2-[(2-phenylethyl)amino](3-pyridyl)}-N-(2-(2-pyridyl)ethyl)carboxamide]: the IC50 is 5250 nM.

For the compound `O=C(NCCc1cccnc1)c1ccc(-c2ccccc2)nc1NCCc1ccccc1` [{6-phenyl-2-[(2-phenylethyl)amino](3-pyridyl)}-N-(2-(3-pyridyl)ethyl)carboxamide], the IC50 was determined as 3090 nM.

For the compound `O=C(NCc1cccnc1)c1ccc(-c2ccccc2)nc1NCCc1ccccc1` [{6-phenyl-2-[(2-phenylethyl)amino](3-pyridyl)}-N-(3-pyridylmethyl)carboxamide], the IC50 turned out to be 151 nM.
